Reference: patent US5277897A, “In vivo enhancement of cellular accumulation of lipophilic cationic organometallic compounds by reduction of intramembrane potential” (Brigham and Women's Hospital, priority 1992, dated 1994)

Key:
[1] = system: cultured chick heart cells; assay: Influence of TPB and CCCP on (membrane potential-independent) accumulation of Tc-MIBI (FIG. 4); type: cell-based; conditions: CCCP 5 uM; presence and absence of TPB; P<0.001
Description: FIG. 4. […] Preparations were incubated for the times indicated in 5.4 mM Ko control loading buffer containing tracer Tc-MIBI and TPB together (Δ) or in loading buffer containing Tc-MIBI alone (.quadrature.). For the latter incubation, TPB was added to the loading buffer at the arrow and cell content of Tc-MIBI subsequently determined (o). Under each condition, CCCP was added to the loading buffers as indicated by the arrows and cell content of Tc-MIBI determined ( , , ·). Each point is the mean ±SEM of 3 determinations.
(§1) Monolayers of spontaneously contractile chick ventricular myocardial cells were obtained from disaggregated 10-day old chick embryo hearts by a slight modification of previously published methods (Horres, C. R., et al., In Pinson, A. (ed.), The Heart Cell in Culture, Boca Raton, CRC Press, pp. 77-108 (1987)). Hearts were trimmed of connective tissue and atria, finely minced and serially exposed to 0.024% (w/v) trypsin in Ca^2+ - and Mg^2+ - free Earle's salt solution for 7 minutes at 37° C. Gentle trituration and agitation on an orbital shaker bath aided disaggregation. Cells released from the first exposure were discarded and cells aspirated from the next four exposures were then added to an equal volume of trypsin deactivating solution consisting of ice-cold culture medium. Cells were centrifuged at 400 g for 10 minutes, resuspended and combined in culture medium, counted with a hemocytometer and diluted to yield a suspension of 5×10^5 cells/ml. 12 ml of suspension were incubated in 100 mm plastic culture dishes containing 7 coverslips (25 mm diameter) placed on the bottom of each dish to serve as substrate for cell growth. Cells were maintained in a humidified atmosphere of 5% CO2 /95% air for 3-4 days yielding a confluent layer of spontaneously contractile myocytes on each coverslip.
Radioactive uptake methods have been described in detail (Piwnica-Worms, D., et al, Circ. (in press). Briefly, coverslips with confluent cells were removed from culture media and pre-equilibrated for 40-60 seconds in MEBSS buffer. Uptake and retention experiments were initiated by immersion of coverslips in 60 mm glass Pyrex dishes containing loading solution consisting of buffer with 0.1-0.6 nM [^99m Tc-MIBI] (0.01-0.4 Ci/nmole; 25-100 uCi/ml). Preparations were removed at various times and rinsed three times in 25 ml volumes of ice-cold (2° C.) isotope-free buffer for 8 seconds each to clear extracellular spaces. Preparations and aliquots of the loading buffer and stock solutions were counted in a well-type sodium iodide gamma counter after which cell protein on each coverslip was extracted in 1% sodium dodecylsulfate with 10 mM sodium borate and assayed by the method of Lowry (Lowry, O. H., et al., J. Biol. Chem. 193:265-275 (1951)). Tc-MIBI binding to glass coverslips without cells was used as an estimate of non-specific adhesion to the substrate ([…] obtained with cellular preparations); this value was subtracted from total uptake determinations to derive the cell-associated counts. Use of generator equilibrium equations (Lamson, M. L., et al., i J. Nucl. Med. 16:639-641 (1975)) allowed calculation of absolute moles of Tc-MIBI in solutions and preparations. Results were therefore expressed as fmol cellular Tc-MIBI/mg protein per nM extracellular Tc-MIBI concentration. […]

[2] = system: cultured chick myocardial cells; conditions: cited from earlier work
[3] = system: cultured chick heart cells; assay: Effect of MSA on Tc-MIBI net accumulation (FIG. 3); type: cell-based; conditions: MSA 5.4 mM
Description: FIG. 3. Effect of MSA on Tc-MIBI net accumulation. Preparations were incubated for the times indicated in Tc-MIBI loading buffer containing 5.4 mM KCl (.quadrature., .smallcircle.) or 5.4 mM K-MSA ( , ·; prepared by equimolar substitution of K-MSA KCl) in the absence (.quadrature., ) or presence (.smallcircle., ·) of TPB (10^-5 M). Each point represents the mean ±SEM of 3 determinations.
Control buffer was a modified Earle's balanced salt solution (MEBSS) with the following composition (mN) Na^30, 145; K^+, 5.4; Ca^2, 1.2; Mg^2+, 0.8; Cl, 152; H2 PO4, 0.8; SO4^2-, 0.8; dextrose, 5.6; HEPES, 4.0; and bovine calf serum, 1% (v/v); […]; 37° C. K-methanesulfonate was made by titration of methanesulfonic acid with KOH (Piwnica-Worms, D., et al., J. Gen. Physiol. 81:731-748 (1983)) and replaced […] in some solutions by equimolar substitution where indicated. Natetraphenylborate, CCCP, bumetanide and valinomycin were dissolved into DMSO prior to addition to buffer. DMSO alone has no significant affect on contractile activity, action potential configuration (Lieberman, M., et al., Dev. Biol. 31:380-403 (1973)) or Tc-MIBI uptake kinetics (Piwnica-Worms, D., et al., Circ. (in press)).
(§2) Monolayers of spontaneously contractile chick ventricular myocardial cells were obtained from disaggregated 10-day old chick embryo hearts by a slight modification of previously published methods (Horres, C. R., et al., In Pinson, A. (ed.), The Heart Cell in Culture, Boca Raton, CRC Press, pp. 77-108 (1987)). […] Cells were centrifuged at 400 g for 10 minutes, resuspended and combined in culture medium, counted with a hemocytometer and diluted to yield a suspension of 5×10^5 cells/ml. […]
Radioactive uptake methods have been described in detail (Piwnica-Worms, D., et al, Circ. (in press). Briefly, coverslips with confluent cells were removed from culture media and pre-equilibrated for 40-60 seconds in MEBSS buffer. Uptake and retention experiments were initiated by immersion of coverslips in 60 mm glass Pyrex dishes containing loading solution consisting of buffer with 0.1-0.6 nM [^99m Tc-MIBI] (0.01-0.4 Ci/nmole; 25-100 uCi/ml). Preparations were removed at various times and rinsed three times in 25 ml volumes of ice-cold (2° C.) isotope-free buffer for 8 seconds each to clear extracellular spaces. Preparations and aliquots of the loading buffer and stock solutions were counted in a well-type sodium iodide gamma counter after which cell protein on each coverslip was extracted in 1% sodium dodecylsulfate with 10 mM sodium borate and assayed by the method of Lowry (Lowry, O. H., et al., J. Biol. Chem. 193:265-275 (1951)). […]

[4] = system: cells and mitochondria; conditions: cited from earlier work; for toxic effects on mitochondrial function: typical loading activities
[5] = system: cultured chick heart cells; assay: Effect of phloretin, alone or with TPB, on net uptake of Tc-MIBI in cultured chick heart cells (FIG. 7, 8); type: cell-based
Description: FIG. 7. Effect of phloretin on net accumulation of Tc-M1B1 in cultured heart cells. Preparations were incubated for the times indicated in Tc-MIBI loading buffer in the absence (.quadrature.) or presence of phloretin ( , 10^-7 M; , 10^-4 M). Each point represents the mean ±SEM of 3-4 determinations.
FIG. 8. Effect of phloretin and tetraphenylborate together on net uptake of Tc-MB1 in cultured chick heart cells. Preparations were incubated in MEBSS containing Tc-MIBI for 30 minutes in the absence (control) or presence of tetraphenylborate and phloretin each alone or in combination as indicated on the abscissa. Each group of four conditions (two groups in A and one group in B) represent separate cultures. Error bars indicate ±SEM for three or more determinations.
as §2
Radioactive uptake methods have been described in detail (Piwnica-Worms, D., et al, Circ. (in press). Briefly, coverslips with confluent cells were removed from culture media and pre-equilibrated for 40-60 seconds in MEBSS buffer. Uptake and retention experiments were initiated by immersion of coverslips in 60 mm glass Pyrex dishes containing loading solution consisting of buffer with 0.1-0.6 nM [^99m Tc-MIBI] (0.01-0.4 Ci/nmole; 25-100 uCi/ml). Preparations were removed at various times and rinsed three times in 25 ml volumes of ice-cold (2° C.) isotope-free buffer for 8 seconds each to clear extracellular spaces. […] Results were therefore expressed as fmol cellular Tc-MIBI/mg protein per nM extracellular Tc-MIBI concentration. […]

[6] = system: cultured chick heart cells; assay: Effect of valinomycin on tetraphenylborate enhancement of Tc-MIBI accumulation in high Ko buffer (Table 1); type: cell-based; conditions: valinomycin 1 ug/ml; high K buffer
Description: as §1
Radioactive uptake methods have been described in detail (Piwnica-Worms, D., et al, Circ. (in press). Briefly, coverslips with confluent cells were removed from culture media and pre-equilibrated for 40-60 seconds in MEBSS buffer. Uptake and retention experiments were initiated by immersion of coverslips in 60 mm glass Pyrex dishes containing loading solution consisting of buffer with 0.1-0.6 nM [^99m Tc-MIBI] (0.01-0.4 Ci/nmole; 25-100 uCi/ml). Preparations were removed at various times and rinsed three times in 25 ml volumes of ice-cold (2° C.) isotope-free buffer for 8 seconds each to clear extracellular spaces. Preparations and aliquots of the loading buffer and stock solutions were counted in a well-type sodium iodide gamma counter after which cell protein on each coverslip was extracted in 1% sodium dodecylsulfate with 10 mM sodium borate and assayed by the method of Lowry (Lowry, O. H., et al., J. Biol. Chem. 193:265-275 (1951)). Tc-MIBI binding to glass coverslips without cells was used as an estimate of non-specific adhesion to the substrate ([…] obtained with cellular preparations); this value was subtracted from total uptake determinations to derive the cell-associated counts. Use of generator equilibrium equations (Lamson, M. L., et al., i J. Nucl. Med. 16:639-641 (1975)) allowed calculation of absolute moles of Tc-MIBI in solutions and preparations. Results were therefore expressed as fmol cellular Tc-MIBI/mg protein per nM extracellular Tc-MIBI concentration. Division of this value by the cell water space (6.9 ul/mg protein; Chiu, M. L., et al., J. Nucl. Med. (31:1646-1653(1990)) yields a nominal intracellular/extracellular Tc-MIBI accumulation ratio neglecting subcellular compartmentation of the agent.
To further explore the influence of TPB on any potential-independent accumulation of Tc-MIBI in myocytes, preparations were exposed to 130 mM K° 20 mM Clo buffer (Table 1). […] Equilibration of intracellular and extracellular spaces occurred in the presence of high K buffer plus valinomycin under all conditions (in/out ration ~1; P=NS) indicating the lack of any significant potential-independent membrane binding of Tc-MIBI.
Preparations were incubated in high Ko low Clo loading buffer +/- valinomycin (1 ug/ml) for 20 minutes in the presence of TPB (10^-5 M) or for 40 minutes in its absence to determine peak accumulation of Tc-MIBI under each condition. Values are the mean ±SEM. Tc-MIBI in/out ratios were obtained by dividing net uptake values by the cell water space of […] (Chiu, M. L., et al., J. Nucl. 31:1646-1653 (1990)). +p<0.01; * p<0.001 compared to net uptake in 130 mM Ko buffer.

## N#CC(C#N)=NNc1cccc(Cl)c1 [CCCP, carbonyl cyanide-m-chlorphenylhydrazone, reference compound]
[1]
  release of myocellular Tc-MIBI: rapid and near complete release of myocellular Tc-MIBI
[2]; CCCP, mitochondrial depolarization
  unidirectional influx and net cellular accumulation of Tc-MIBI: decreases the unidirectional influx and net cellular accumulation of TC-MIBI

## CS(=O)(=O)O [MSA, methanesulfonate, reference compound]
[3]
  uptake kinetics or equilibrium content of Tc-MIBI: did not significantly alter uptake kinetics or equilibrium content of Tc-MIBI
[3]; TPB 10^-5 M
  TPB-induced enhancement of Tc-MIBI accumulation: did not interfere with the TPB-induced enhancement of Tc-MIBI accumulation

## c1ccc([P+](c2ccccc2)(c2ccccc2)c2ccccc2)cc1 [TPP^+, tetraphenylphosphonium]
[4]
  toxic effects on mitochondrial function: toxic effects on mitochondrial function

## CO[C@@H]1C[C@@H](C[C@H]2CC[C@H](C)[C@H]([C@@H](C)C(=O)O)O2)O[C@]2(O[C@](C)([C@H]3CC[C@@](C)([C@@H]4O[C@@H]([C@H]5O[C@@](O)(CO)[C@H](C)C[C@@H]5C)C[C@@H]4C)O3)C[C@H]2C)[C@@H]1C [nigericin]
[2]; nigericin, mitochondrial hyperpolarization
  net cellular uptake of Tc-MIBI: increases net cellular uptake of Tc-MIBI

## CC[C@H]1/C=C/C=C/C[C@@H](C)[C@H](O)[C@@](C)(O)C(=O)[C@@H](C)[C@H](O)[C@@H](C)C(=O)[C@@H](C)[C@H](O)[C@@H](C)/C=C/C(=O)O[C@@H]2[C@H](C)[C@H](CC1)O[C@]1(CC[C@H](C)[C@H](C[C@@H](C)O)O1)[C@H]2C [oligomycin]
[2]; oligomycin, mitochondrial hyperpolarization
  Tc-MIBI uptake or retention: increases Tc-MIBI uptake or retention

## O=C(CCc1ccc(O)cc1)c1c(O)cc(O)cc1O [phloretin, 3-(4-hydroxyphenyl)-1-(2,4,6-trihydroxyphenyl)-1-propanone]
[5]; Gallus gallus, 0.5 h, phloretin 10^-4 M, 30 minute uptake (FIG. 8), approximately, read-out: net retention of Tc-MIBI above control levels
  fold induction at 100 µM: 2.5 to 3.5
[5]; phloretin 10^-4 M and 10^-5 M with 10^-5 M TPB, 30 minutes
  additive enhancement by tetraphenylborate and phloretin: no evidence of additive enhancement by tetraphenylborate and phloretin
[5]; phloretin 10^-4 M, within 30 minutes (FIG. 7)
  net uptake of Tc-MIBI enhanced above control: five-fold

## COC(=O)c1ccccc1-c1c2ccc(=N)cc-2oc2cc(N)ccc12 [rhodamine 123]
[4]
  toxicity to cells and mitochondria: shown to be toxic to cells and mitochondria
  toxic effects on mitochondrial function: toxic effects on mitochondrial function

## [N-]=[N+]=[N-] [sodium azide]
[2]; sodium azide in combination with oligomycin
  net uptake of Tc-MIBI: virtually eliminates net uptake of the agent

## CC(C)[C@@H]1NC(=O)[C@H](C)OC(=O)[C@@H](C(C)C)NC(=O)[C@@H](C(C)C)OC(=O)[C@H](C(C)C)NC(=O)[C@H](C)OC(=O)[C@@H](C(C)C)NC(=O)[C@@H](C(C)C)OC(=O)[C@H](C(C)C)NC(=O)[C@H](C)OC(=O)[C@@H](C(C)C)NC(=O)[C@@H](C(C)C)OC1=O [valinomycin, reference compound]
[6]
  net accumulation of Tc-MIBI: eliminated net accumulation of Tc-MIBI
